The target of data set [1] is T1, FLT3 wild type (Homo sapiens, UniProt P36888).
T1 construct: purchased Reaction Biology Corp. (Kinase HotSpot service)
T1 sequence (P36888 27-993): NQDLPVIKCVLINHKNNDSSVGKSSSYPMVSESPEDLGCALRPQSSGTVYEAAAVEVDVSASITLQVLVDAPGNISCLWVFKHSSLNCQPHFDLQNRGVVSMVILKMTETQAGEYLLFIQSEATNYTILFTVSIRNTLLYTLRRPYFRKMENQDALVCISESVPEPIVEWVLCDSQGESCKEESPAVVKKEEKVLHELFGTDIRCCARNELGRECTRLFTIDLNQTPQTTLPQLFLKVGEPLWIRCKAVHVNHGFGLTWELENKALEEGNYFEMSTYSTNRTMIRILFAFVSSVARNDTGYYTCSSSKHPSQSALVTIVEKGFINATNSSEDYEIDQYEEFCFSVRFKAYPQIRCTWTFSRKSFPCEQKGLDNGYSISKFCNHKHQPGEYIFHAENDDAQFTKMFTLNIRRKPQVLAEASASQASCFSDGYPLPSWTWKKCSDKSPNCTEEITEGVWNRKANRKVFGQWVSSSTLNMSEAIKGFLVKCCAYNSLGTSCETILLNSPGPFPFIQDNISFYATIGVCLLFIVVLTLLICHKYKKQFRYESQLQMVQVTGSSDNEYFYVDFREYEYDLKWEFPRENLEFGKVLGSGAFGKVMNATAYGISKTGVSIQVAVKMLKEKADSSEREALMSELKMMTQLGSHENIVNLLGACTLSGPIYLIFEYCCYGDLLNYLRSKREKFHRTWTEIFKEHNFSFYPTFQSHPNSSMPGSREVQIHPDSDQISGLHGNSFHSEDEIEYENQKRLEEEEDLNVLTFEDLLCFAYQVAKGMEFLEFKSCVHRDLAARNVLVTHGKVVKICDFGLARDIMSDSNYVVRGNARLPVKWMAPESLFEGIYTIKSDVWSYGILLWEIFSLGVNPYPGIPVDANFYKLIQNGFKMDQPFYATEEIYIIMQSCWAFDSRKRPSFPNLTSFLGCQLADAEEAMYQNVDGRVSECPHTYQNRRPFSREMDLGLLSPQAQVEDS
As to the kind of experiment: Kinase HotSpot radiometric kinase assay (Reaction Biology). Format: biochemical. Conditions: Table 1; read-out: FLT3 IC50.
Method: (§1) Reaction Biology Corp. Kinase HotSpot SM service (www.reactionbiology.com) was used to determine IC50 values for all compounds and kinase profiles. The analysis protocol was as follows: In a final reaction volume of 25 μL, a peptide substrate, [[sequence]], 5 μM, ATP 10 μM, and FLT3(h) (5 to 10 mU) were incubated with 25 mM Tris pH 7.5, 0.02 mM EGTA, 0.66 mg/mL myelin basic protein, 10 mM Mg acetate and [γ-33P-ATP] (a concentration of approximately 500 cpm/pmol was required for specific activity). The reaction was initiated by adding the Mg-ATP mixture. After incubation at room temperature for 40 minutes, the reaction was stopped by adding 5 μL of a 3% phosphoric acid solution. Thereafter, 10 μL of the reactant was spotted on a P30 filter mat and washed three times for 5 minutes in 75 mM phosphoric acid and once in methanol before drying and scintillation counting.

Data set [2] deals with T2, FLT3 (D835Y) (Homo sapiens, UniProt P36888, D835Y).
T2 sequence (P36888 27-993 D835Y): T1 sequence (P36888 27-993) with D809Y
As to the kind of experiment: Kinase HotSpot radiometric kinase assay (Reaction Biology).
Method: as §1

Setting [3] is: read-out: FLT3 (D835Y) IC50, Table 1.

Molecules are shown by their SMILES. Numbering of substitutions follows the chain as printed. Like-named read-outs stand apart in the source and are kept apart here.

Data on 18 compounds can be found in patent US20240270720A1, “INDAZOLE YL BENZIMIDAZOLE DERIVATIVE OR PHARMACEUTICALLY ACCEPTABLE SALT THEREOF, AND USE THEREOF” (INDUSTRY-UNIVERSITY COOPERATION FOUNDATION HANYANG …, priority 2021, published 2024).

The term IC50 denotes the concentration that gives 50% inhibition. A word on the melting point: it is the temperature of the solid-liquid transition. In the case of `CN1CCN(c2cc(C(=O)Nc3ccc4[nH]c(-c5ccc6cn[nH]c6c5)nc4c3)cc(C(F)(F)F)c2)CC1` [Compound 8a, N-(2-(1H-indazol-6-yl)-1H-benzo[di]imidazol-5-yl)-3-(4-methylpiperazin-1-yl)-5-(trifluoromethyl)benzamide], the melting point is 228 to 230 °C. The IC50 in data set [1] worked out at 181 nM. For the same compound, the IC50 in data set [2] (setting [3]) worked out at 21 nM.
`Cc1cn(-c2cc(C(=O)Nc3ccc4[nH]c(-c5ccc6cn[nH]c6c5)nc4c3)cc(C(F)(F)F)c2)cn1` [Compound 8b, N-(2-(1H-indazol-6-yl)-1H-benzo[di]imidazol-5-yl)-3-(4-methyl-1H-imidazol-1-yl)-5-(trifluoromethyl)benzamide] displayed a melting point of 239 to 241 °C. Also, the IC50 in data set [1] stood at 639 nM. In addition, the IC50 in data set [2] (setting [3]) was determined as 110 nM.
`Cc1nccn1-c1cc(C(=O)Nc2ccc3[nH]c(-c4ccc5cn[nH]c5c4)nc3c2)cc(C(F)(F)F)c1` [Compound 8c, N-(2-(1H-indazol-6-yl)-1H-benzo[di]imidazol-5-yl)-3-(2-methyl-1H-imidazol-1-yl)-5-(trifluoromethyl)benzamide] gave a melting point of 251 to 253 °C. Besides, the IC50 in data set [1] stood at 470 nM.
For the compound `O=C(Nc1ccc2[nH]c(-c3ccc4cn[nH]c4c3)nc2c1)c1cc(N2CCOCC2)cc(C(F)(F)F)c1` [Compound 8d, N-(2-(1H-indazol-6-yl)-1H-benzo[di]imidazol-5-yl)-3-morpholino-5-(trifluoromethyl)benzamide], the melting point is 195 to 196 °C. Moreover, the IC50 in data set [1] was 1030 nM. Also, in data set [2] (setting [3]), the IC50 worked out at 151 nM.
The like results for `CN1CCN(c2ccc(C(=O)Nc3ccc4[nH]c(-c5ccc6cn[nH]c6c5)nc4c3)cc2C(F)(F)F)CC1` [Compound 8e, N-(2-(1H-indazol-6-yl)-1H-benzo[di]imidazol-5-yl)-4-(4-methylpiperazin-1-yl)-3-(trifluoromethyl)benzamide] were, in that order, 160 to 161 °C, 154 nM and 44 nM.
`O=C(Nc1ccc2[nH]c(-c3ccc4cn[nH]c4c3)nc2c1)c1ccc(N2CCOCC2)c(C(F)(F)F)c1` [Compound 8f, N-(2-(1H-indazol-6-yl)-1H-benzo[di]imidazol-5-yl)-4-morpholino-3-(trifluoromethyl)benzamide] displayed a melting point of 202 to 204 °C. Further, the IC50 in data set [1] worked out at 2510 nM. Besides, the IC50 in data set [2] (setting [3]) came to 370 nM.
In the case of `O=C(Nc1ccc2[nH]c(-c3ccc4cn[nH]c4c3)nc2c1)c1cnn(-c2ccccc2)c1C(F)(F)F` [Compound 8g, N-(2-(1H-indazol-6-yl)-1H-benzo[di]imidazol-5-yl)-1-phenyl-5-(trifluoromethyl)-1H-pyrazole-4-carboxamide], the melting point fell in the range of 258 to 260 °C. Further, in data set [1], the IC50 was 1100 nM.
The compound `CC(C)(C)c1cc(C(=O)Nc2ccc3[nH]c(-c4ccc5cn[nH]c5c4)nc3c2)no1` [Compound 8h, N-(2-(1H-indazol-6-yl)-1H-benzo[di]imidazol-5-yl)-5-(tert-butyl)isoxazole-3-carboxamide] registered a melting point of 147 to 149 °C. Further, the IC50 in data set [1] was approximately 700 nM. For the same compound, half-maximal inhibition in data set [2] (IC50) required 32 nM.
Turning to `COc1ccc(/C=C/C(=O)Nc2ccc3[nH]c(-c4ccc5cn[nH]c5c4)nc3c2)cc1` [Compound 8k, (E)-N-(2-(1H-indazol-6-yl)-1H-benzo[di]imidazol-5-yl)-3-(4-methoxyphenyl)acrylamide], the melting point fell in the range of 206 to 208 °C. Moreover, in data set [1], the IC50 was 761 nM.
With `CC(C)(C)c1cc(NC(=O)Nc2ccc3[nH]c(-c4ccc5cn[nH]c5c4)nc3c2)no1` [Compound 8l, 1-(2-(1H-indazol-6-yl)-1H-benzo[di]imidazol-5-yl)-3-(5-(tert-butyl)isoxazol-3-yl)urea], the melting point was 184 to 186 °C. The IC50 in data set [1] came out at 1170 nM.
For `O=C(Nc1ccc(Cl)c(Cl)c1)Nc1ccc2[nH]c(-c3ccc4cn[nH]c4c3)nc2c1` [Compound 8m, 1-(2-(1H-indazol-6-yl)-1H-benzo[di]imidazol-5-yl)-3-(3,4-dichlorophenyl)urea], the melting point lay within 144 to 146 °C. Moreover, the concentration for half-maximal inhibition (IC50) in data set [1] was found to be 3080 nM. The same compound came in with an IC50 in data set [2] of approximately 1000 nM.
Regarding `CN(C)C1CCN(c2cc(C(=O)Nc3ccc4[nH]c(-c5ccc6cn[nH]c6c5)nc4c3)cc(C(F)(F)F)c2)C1` (centres unmarked) [Compound 8n, N-(2-(1H-indazol-6-yl)-1H-benzo[di]imidazol-5-yl)-3-(3-(dimethylamino)pyrrolidin-1-yl)-5-(trifluoromethyl)benzamide], the melting point lay within 283 to 285 °C. Also, in data set [1], the IC50 amounted to 287 nM.
The like results for `O=C(Nc1ccc2[nH]c(-c3ccc4cn[nH]c4c3)nc2c1)c1cc(CN2CCN(C3CC3)CC2)cc(C(F)(F)F)c1` [Compound 8q, N-(2-(1H-indazol-6-yl)-1H-benzo[di]imidazol-5-yl)-3-((4-cyclopropylpiperazin-1-yl)methyl)-5-(trifluoromethyl)benzamide] were, in that order, 150 to 152 °C and 523 nM.
In turn, `CN1CCC(Nc2cc(C(=O)Nc3ccc4[nH]c(-c5ccc6cn[nH]c6c5)nc4c3)cc(C(F)(F)F)c2)CC1` [Compound 8s, N-(2-(1H-indazol-6-yl)-1H-benzo[di]imidazol-5-yl)-3-((1-methylpiperidin-4-yl)amino)-5-(trifluoromethyl)benzamide] came in with a melting point of 175 to 177 °C.
In the case of `CN1CCC(Oc2cc(C(=O)Nc3ccc4[nH]c(-c5ccc6cn[nH]c6c5)nc4c3)cc(C(F)(F)F)c2)CC1` [Compound 8u, N-(2-(1H-indazol-6-yl)-1H-benzo[di]imidazol-5-yl)-3-((1-methylpiperidin-4-yl)oxy)-5-(trifluoromethyl)benzamide], the melting point was in the range of 293 to 295 °C. Further, in data set [2] (setting [3]), the IC50 came out at 55 nM.
The compound `CN1CCC[C@@H](Nc2cc(C(=O)Nc3ccc4[nH]c(-c5ccc6cn[nH]c6c5)nc4c3)cc(C(F)(F)F)c2)C1` [Compound 8v, N-(2-(1H-indazol-6-yl)-1H-benzo[di]imidazol-5-yl)-3-((1-methylpiperidin-3-yl)amino)-5-(trifluoromethyl)benzamide] registered a melting point of 213 to 214 °C.
Regarding `CCN1CCN(Cc2ccc(C(=O)Nc3ccc4[nH]c(-c5ccc6cn[nH]c6c5)nc4c3)cc2C(F)(F)F)CC1` [Compound 8w, N-(2-(1H-indazol-6-yl)-1H-benzo[di]imidazol-5-yl)-4-((4-ethylpiperazin-1-yl)methyl)-3-(trifluoromethyl)benzamide], the melting point was 164 to 166 °C. Also, the IC50 in data set [1] was found to be 290 nM.
The corresponding values for `CN1CCC(Oc2ccc(C(=O)Nc3ccc4[nH]c(-c5ccc6cn[nH]c6c5)nc4c3)cc2C(F)(F)F)CC1` [Compound 8x, N-(2-(1H-indazol-6-yl)-1H-benzo[di]imidazol-5-yl)-4-((1-methylpiperidin-4-yl)oxy)-3-(trifluoromethyl)benzamide] are 293 to 295 °C and 743 nM.
